Laboratory results reported in the NIST ThermoML archive (doi:10.1021/je050070r).
Numbers after ± are expanded uncertainties.

Settings: Liquid

O=C(O)C(F)(F)C(F)(F)C(F)(F)C(F)(F)C(F)(F)C(F)(F)C(F)(F)C(F)(F)C(F)(F)C(F)(F)C(F)(F)F [dodecanoic acid, tricosafluoro-]
Settings | vapor or sublimation pressure [kPa]
400.73 K | 0.856 ± 0.12
413.72 K | 1.819 ± 0.17
422.1 K | 2.854 ± 0.2
422.75 K | 2.985 ± 0.2
433.27 K | 4.848 ± 0.24
445.63 K | 8.29 ± 0.33
457.94 K | 13.81 ± 0.47
470.59 K | 22.07 ± 0.67
483.66 K | 34.48 ± 0.98
498.85 K | 55.15 ± 1.5
520.51 K | 99.96 ± 2.6

O=C(O)C(F)(F)C(F)(F)C(F)(F)C(F)(F)C(F)(F)C(F)(F)C(F)(F)C(F)(F)C(F)(F)F [nonadecafluorodecanoic acid]
Settings | vapor or sublimation pressure [kPa]
402.71 K | 3.129 ± 0.2
406.24 K | 3.749 ± 0.22
414.08 K | 5.541 ± 0.26
425.35 K | 9.331 ± 0.35
436.83 K | 15.18 ± 0.5
447.12 K | 22.77 ± 0.69
460.65 K | 37.23 ± 1.1
476.08 K | 62.05 ± 1.7
492.03 K | 99.97 ± 2.6

O=C(O)C(F)(F)C(F)(F)C(F)(F)C(F)(F)C(F)(F)C(F)(F)C(F)(F)F [pentadecafluorooctanoic acid]
Settings | vapor or sublimation pressure [kPa]
332.4 K | 0.128 ± 0.037
335.52 K | 0.168 ± 0.037
339.75 K | 0.231 ± 0.045
345.75 K | 0.361 ± 0.061
352.15 K | 0.581 ± 0.088
359.75 K | 0.96 ± 0.14
368.05 K | 1.602 ± 0.16
377.09 K | 2.69 ± 0.19
387.15 K | 4.591 ± 0.24
397.55 K | 7.691 ± 0.32
409.26 K | 13.07 ± 0.45
421.75 K | 22.16 ± 0.67
435.35 K | 37.25 ± 1.1
450.95 K | 63.98 ± 1.7
463.95 K | 96.5 ± 2.5

O=C(O)C(F)(F)C(F)(F)C(F)(F)C(F)(F)C(F)(F)C(F)(F)C(F)(F)C(F)(F)F [perfluorononanoic acid]
Settings | vapor or sublimation pressure [kPa]
372.78 K | 1.12 ± 0.16
382.69 K | 2.02 ± 0.17
390.81 K | 3.12 ± 0.2
401.7 K | 5.54 ± 0.26
412.92 K | 9.33 ± 0.36
423.86 K | 15.19 ± 0.5
432.85 K | 22.77 ± 0.69
446.11 K | 37.25 ± 1.1
461.08 K | 62.07 ± 1.7
476.13 K | 99.97 ± 2.6
476.27 K | 99.97 ± 2.6

O=C(O)C(F)(F)C(F)(F)C(F)(F)C(F)(F)C(F)(F)C(F)(F)C(F)(F)C(F)(F)C(F)(F)C(F)(F)F [perfluoroundecanoic acid]
Settings | vapor or sublimation pressure [kPa]
385.19 K | 0.616 ± 0.092
393.78 K | 1.062 ± 0.15
402.69 K | 1.752 ± 0.17
412.29 K | 2.785 ± 0.19
412.41 K | 2.789 ± 0.19
422.37 K | 4.513 ± 0.24
431.47 K | 6.925 ± 0.3
445.17 K | 12.44 ± 0.43
459.92 K | 20.7 ± 0.64
473.83 K | 34.49 ± 0.98
475.24 K | 34.48 ± 0.98
491.44 K | 58.6 ± 1.6
491.79 K | 58.6 ± 1.6
509.83 K | 96.51 ± 2.5
510.8 K | 99.97 ± 2.6
